The subject of assay [1] is human myometrial microvascular endothelial cells (MEC). Briefly: Endothelial cell proliferation assay (CellTitre 96 MTS bioassay). The class given is cell-based. As to conditions: for effect of cAMP promoter on bFGF-stimulated MEC proliferation: IBMX 330 μM, dibutyryl cAMP 50 μM; for stimulation of MEC proliferation by maximal concentrations of growth factors: P5 MEC, M199 with 20% HS, 6 days (FIG. 5); for growth factor-stimulated MEC proliferation with combinations of HS and FCS in the medium: compared with HS alone (FIG. 3B); for dose dependence of stimulated MEC proliferation: concentration range 0.01-20 ng/ml (FIG. 6); for EC50 of growth factor-induced MEC proliferation: 6 days, absorbance as % of maximal response. The procedure: The CellTitre 96 MTS tetrazolium-based bioassay (Promega, Madison, WT, USA), where the absorbance of the formazan product is directly proportional to the number of viable cells, was used to indirectly measure cell number after incubation of MEC with various mitogens. It was initially established that the MTS bioassay was linear from 0-2 ×10^4 MEC/well. MEC in basal M199 medium (M199 medium containing 5% PCS, 2 mM glutamine, antibiotic/antimycotic mixture) were seeded in triplicate onto fibronectin (10 μg/ml) coated wells of 96 well plates at 2000 cells/well and allowed to attach the quiesce for 36 hours at 37° C. in 5% CO2/air. Medium was replaced with the standard or complex M199 culture medium (day 0) with or without the following growth factors: 10 ng/ml vascular endothelial growth factor (VEGF121;gift from Dr J Abrahams, Scios Inc, Sunnyvale, Calif., USA), 0.01-20 ng/ml VEGF165 (R & D Systems, Minneapolis, Minn., USA) bFGF (0.01-10 ng/ml), 120 μg/ml EC growth factor (ECGF; Boehringer Mannheim) 50 ng/ml epidermal growth factor (EGF; R & D Systems), depending on the assay conditions being tested. In some experiments different concentrations of HS and FCS and combinations of both were tested and in other experiments various component of the complex medium were omitted. Cells were incubated at 37° C. in 5% CO2/air for 6 or 10 days, with medium changes every 2 days. Twenty μl 3-(4,5-dimethylthiazol-2-yl)-5-(3-carboxymethoxyphenyl)-2-(4sulphophenyl)-2H-tetrazolium (MTS) was added to the cells and incubated 2 hours at 37° C. and absorbance measured at 490 nm using a plate reader (Emax, Molecular Devices, Sunnyvale, Calif., USA). Absorbance was also measured on day 0 and this value subtracted from all results to determine MEC growth over 6 days.

Assay [2] has the same test system. Briefly: MEC migration assay (monolayer wound assay). To be noted: for migration of MEC in response to growth factor: 48 hour incubation in basal medium, high and low passage MEC; for migration of MEC into denuded area, Early Passage MEC (P4) / migration of MEC into denuded area, Late Passage MEC (P12): semi-quantitative coverage of denuded area after wounding, basal medium. In kind it is cell-based. Details: key to migration of MEC into denuded area, Early Passage MEC (P4) / migration of MEC into denuded area, Late Passage MEC (P12): +/−: very low; +: low; ++: medium; +++: high coverage of the denuded area. As for the experimental part:
[…] The medium was changed to basal medium, the MEC monolayers wounded using a plastic pasteur pipette and photographed using a Zeiss inverted phase contrast microscope. Duplicate wells were incubated with or without VEGF165 (10 ng/ml) or bFGF (5 ng/ml) in the presence and absence of 40 μg/ml rabbit anti human VEGF antibody (Gargett et al., 1999) or 50 μg/ml goat anti-human bFGF antibody (R & D Systems) respectively for 48 hours at 37° C. in 5% CO/air and the same field of view was rephotographed.
A characteristic feature of EC is their ability to migrate in response to certain growth factors (Goodman et al., 1985; Ferrara and DavisSmyth, 1997). The migration of early and late passage myometrial MEC in response to bFGF and VEGF was examined using the monolayer wound assay (Goodman el al., 1985) in the presence and absence of neutralising bFGF and VEGF antibodies.

The mark [3] stands for this setting: over 10 days, 5 ng/ml bFGF, 15% HS/5% FCS (FIG. 4).
Where [4] appears, read: early (low) passage MEC (P1, P2, P3).
Where [5] appears, read: late (high) passage MEC (P10, P13).

For the molecule `CCCC(=O)Nc1ncnc2c1ncn2[C@@H]1O[C@@H]2COP(=O)(O)O[C@H]2[C@H]1OC(=O)CCC` [dibutyryl cAMP, N-6, 2 ′-O-dibutyryl adenosine 3′,5′-cyclic monophosphate, reference compound], the “effect of cAMP promoter on bFGF-stimulated MEC proliferation” value in assay [1] (after 5 days, 5 ng/ml bFGF (FIG. 4)) is recorded as “greater growth was observed in the absence”; in assay [1] (setting [3]) it was “significantly greater proliferation of myometrial MEC over 10 days in the absence”.
As for `CC(C)Cn1c(=O)n(C)c(=O)c2[nH]cnc21` [IBMX, 3-isobutyl-1-methyl xanthine, reference compound], the “effect of cAMP promoter on bFGF-stimulated MEC proliferation” value in assay [1] (setting [3]) is reported as “significantly greater proliferation of myometrial MEC over 10 days in the absence”.
With “EGF: epidermal growth factor (R & D Systems) (NSDSECPLSHDGYCLHDGVCMYIEALDKYACNCVVGYIGERCQYRDLKWWELR; Epidermal growth factor; UniProt P01133 971-1023, looked up)”, in assay [1], the “stimulation of MEC proliferation by maximal concentrations of growth factors” value was “weakly mitogenic”.
Turning to “vascular endothelial growth factor [VEGF]”, in assay [2], the “migration of MEC in response to growth factor” value was “migrated into the denuded area to a comparable extent”; the “migration of MEC into denuded area, Early Passage MEC (P4)” value is recorded as “+++”; the “migration of MEC into denuded area, Late Passage MEC (P12)” value is recorded as “+++”. Further, in assay [1], the “growth factor-stimulated MEC proliferation with combinations of HS and FCS in the medium” value is recorded as “even greater levels of MEC proliferation”; the “dose dependence of stimulated MEC proliferation” value is on record as “dose dependent manner”. Moreover, the “EC50 of growth factor-induced MEC proliferation” value (“EC50” for short) in assay [1] (setting [4]) is around 1.5 ng/mL. Besides, in assay [1] (high passage MEC, n=2), the “difference in absorbance between maximal and minimal response measured at day 6” value (shortened to “difference”) amounted to 0.70. Also, the “EC50” value in assay [1] (setting [5]) is around 1.6 ng/mL. For the same molecule, the “difference” value in assay [1] (low passage MEC, n=3) is reported as 0.51 ±0.09.
Turning to “bFGF: mitogen, growth factor (Gibco BRL)”, in assay [2], the “migration of MEC in response to growth factor” value is “migrated into the denuded area to a comparable extent”; the “migration of MEC into denuded area, Early Passage MEC (P4)” value is reported as “+++”; the “migration of MEC into denuded area, Late Passage MEC (P12)” value is “++”. For the same molecule, in assay [1], the “stimulation of MEC proliferation by maximal concentrations of growth factors” value is on record as “maximal stimulation of MEC proliferation”; the “growth factor-stimulated MEC proliferation with combinations of HS and FCS in the medium” value was “even greater levels of MEC proliferation”; the “dose dependence of stimulated MEC proliferation” value was “dose dependent manner”. Besides, in assay [1] (setting [4]), the “EC50” value was around 0.6 ng/mL. In addition, the “difference” value in assay [1] (high passage MEC, n=2) worked out at 0.82. Besides, in assay [1] (setting [5]), the “EC50” value is around 0.9 ng/mL. In assay [1] (low passage MEC, n=3), the “difference” value was 0.50 ±0.07.
As for `C[C@]12CCC(=O)C=C1CC[C@@H]1[C@@H]2[C@@H](O)C[C@@]2(C)[C@H]1CC[C@]2(O)C(=O)CO` [Hydrocortisone, hydrocortisone, reference compound], in assay [1] (in the presence or absence of IBMX or dibutyryl cAMP (results not shown)), the “effect on bFGF-induced myometrial MEC proliferation” value is on record as “no significant effect”.

These data come from patent US20020039787A1, “Method for culturing cells” (priority 2000, published 2002).
